Target: human APJ receptor (Homo sapiens (Human), UniProt P35414)
Assay: [35S]GTPγS binding assay on membranes from CHO cells stably expressing human APJ receptor
Assay type: biochemical
Details: read-out: Activity hAPJ SPA EC50 IP
Procedure, shortened: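 Agonist-driven [35S]GTPγS (0.2 nM) binding was measured over 90 min at room temperature on human APJ-expressing CHO membranes with bead capture, in buffer containing 3 μM GDP, 200 mM NaCl and 5 mM MgCl2 (pH 7.5). Excess unlabelled GTPγS (100 μM) gave nonspecific signal; EC50 from non-linear fits.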

Sequence of human APJ receptor (P35414 whole entry): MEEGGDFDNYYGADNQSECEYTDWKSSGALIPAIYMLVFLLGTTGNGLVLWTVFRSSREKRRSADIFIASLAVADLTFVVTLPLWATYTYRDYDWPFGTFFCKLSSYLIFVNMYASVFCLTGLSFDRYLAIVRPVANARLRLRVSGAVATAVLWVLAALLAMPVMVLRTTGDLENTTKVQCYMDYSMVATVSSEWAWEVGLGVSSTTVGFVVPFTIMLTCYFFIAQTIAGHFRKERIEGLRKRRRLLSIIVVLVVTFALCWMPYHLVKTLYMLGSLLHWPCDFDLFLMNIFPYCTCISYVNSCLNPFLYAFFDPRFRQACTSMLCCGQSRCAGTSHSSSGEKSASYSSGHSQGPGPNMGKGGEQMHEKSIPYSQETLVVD

Row | Structure (SMILES) | EC50 [nM]
1 | COCCn1c(NS(=O)(=O)[C@@H](C)[C@H](OC)c2ncc(Cl)cn2)nnc1[C@H]1CCOC1 (single isomer, unassigned) [Example 309.0, (1R,2S)-1-(5-chloropyrimidin-2-yl)-1-methoxy-N-(4-(2-methoxyethyl)-5-((R)-tetrahydrofuran-3-yl)-4H-1,2,4-triazol-3-yl)propane-2-sulfonamide or (1R,2S)-1-(5-chloropyrimidin-2-yl)-1-methoxy-N-(4-(2-methoxyethyl)-5-((S)-tetrahydrofuran-3-yl)-4H-1,2,4-triazol-3-yl)propane-2-sulfonamide] | 2600
2 | COCCn1c(NS(=O)(=O)[C@@H](C)[C@H](OC)c2ncc(Cl)cn2)nnc1[C@H]1CCOC1 (single isomer, unassigned) [Example 310.0, (1R,2S)-1-(5-chloropyrimidin-2-yl)-1-methoxy-N-(4-(2-methoxyethyl)-5-((R)-tetrahydrofuran-3-yl)-4H-1,2,4-triazol-3-yl)propane-2-sulfonamide or (1R,2S)-1-(5-chloropyrimidin-2-yl)-1-methoxy-N-(4-(2-methoxyethyl)-5-((S)-tetrahydrofuran-3-yl)-4H-1,2,4-triazol-3-yl)propane-2-sulfonamide] | 540
3 | COCCn1c(NS(=O)(=O)[C@@H](C)[C@H](OC)c2ncc(Cl)cn2)nnc1[C@@H]1COCCO1 (single isomer, unassigned) [Example 311.0, (1R,2S)-N-(5-((R)-1,4-dioxan-2-yl)-4-(2-methoxyethyl)-4H-1,2,4-triazol-3-yl)-1-(5-chloropyrimidin-2-yl)-1-methoxypropane-2-sulfonamide or (1R,2S)-N-(5-((S)-1,4-dioxan-2-yl)-4-(2-methoxyethyl)-4H-1,2,4-triazol-3-yl)-1-(5-chloropyrimidin-2-yl)-1-methoxypropane-2-sulfonamide] | 1700
4 | COCCn1c(NS(=O)(=O)[C@@H](C)[C@H](OC)c2ncc(Cl)cn2)nnc1[C@@H]1COCCO1 (single isomer, unassigned) [Example 312.0, (1R,2S)-N-(5-((R)-1,4-dioxan-2-yl)-4-(2-methoxyethyl)-4H-1,2,4-triazol-3-yl)-1-(5-chloropyrimidin-2-yl)-1-methoxypropane-2-sulfonamide or (1R,2S)-N-(5-((S)-1,4-dioxan-2-yl)-4-(2-methoxyethyl)-4H-1,2,4-triazol-3-yl)-1-(5-chloropyrimidin-2-yl)-1-methoxypropane-2-sulfonamide] | 1900
5 | COc1cccc(OC)c1-n1c(NS(=O)(=O)[C@@H](C)[C@H](C)c2ncc(F)cn2)nnc1[C@H]1CCC(C)(C)O1 (single isomer, unassigned) [Example 333.0, (2S,3R)-N-(4-(2,6-dimethoxyphenyl)-5-((R)-5,5-dimethyltetrahydrofuran-2-yl)-4H-1,2,4-triazol-3-yl)-3-(5-fluoropyrimidin-2-yl)butane-2-sulfonamide or (2S,3R)-N-(4-(2,6-dimethoxyphenyl)-5-((S)-5,5-dimethyltetrahydrofuran-2-yl)-4H-1,2,4-triazol-3-yl)-3-(5-fluoropyrimidin-2-yl)butane-2-sulfonamide] | 190
6 | COc1cccc(OC)c1-n1c(NS(=O)(=O)[C@@H](C)[C@H](C)c2ncc(F)cn2)nnc1[C@H]1CCC(C)(C)O1 (single isomer, unassigned) [Example 334.0, (2S,3R)-N-(4-(2,6-dimethoxyphenyl)-5-((R)-5,5-dimethyltetrahydrofuran-2-yl)-4H-1,2,4-triazol-3-yl)-3-(5-fluoropyrimidin-2-yl)butane-2-sulfonamide or (2S,3R)-N-(4-(2,6-dimethoxyphenyl)-5-((S)-5,5-dimethyltetrahydrofuran-2-yl)-4H-1,2,4-triazol-3-yl)-3-(5-fluoropyrimidin-2-yl)butane-2-sulfonamide] | 2.5
7 | CCC(CC)n1c(NS(=O)(=O)[C@@H](C)[C@H](OC)c2ncc(Cl)cn2)nnc1[C@@H]1COCCO1 (single isomer, unassigned) [Example 335.0, (1R,2S)-1-(5-chloro-2-pyrimidinyl)-N-(5-((2R)-1,4-dioxan-2-yl)-4-(3-pentanyl)-4H-1,2,4-triazol-3-yl)-1-methoxy-2-propanesulfonamide or (1R,2S)-1-(5-chloro-2-pyrimidinyl)-N-(5-((2S)-1,4-dioxan-2-yl)-4-(3-pentanyl)-4H-1,2,4-triazol-3-yl)-1-methoxy-2-propanesulfonamide] | 38
8 | CCC(CC)n1c(NS(=O)(=O)[C@@H](C)[C@H](OC)c2ncc(Cl)cn2)nnc1[C@@H]1COCCO1 (single isomer, unassigned) [Example 336.0, (1R,2S)-1-(5-chloro-2-pyrimidinyl)-N-(5-((2R)-1,4-dioxan-2-yl)-4-(3-pentanyl)-4H-1,2,4-triazol-3-yl)-1-methoxy-2-propanesulfonamide or (1R,2S)-1-(5-chloro-2-pyrimidinyl)-N-(5-((2S)-1,4-dioxan-2-yl)-4-(3-pentanyl)-4H-1,2,4-triazol-3-yl)-1-methoxy-2-propanesulfonamide] | 1400
9 | CO[C@H](c1ncc(Cl)cn1)[C@H](C)S(=O)(=O)Nc1nnc([C@@H]2COCCO2)n1C(C1CC1)C1CC1 (single isomer, unassigned) [Example 337.0, (1R,2S)-1-(5-chloro-2-pyrimidinyl)-N-(4-(dicyclopropylmethyl)-5-((2R)-1,4-dioxan-2-yl)-4H-1,2,4-triazol-3-yl)-1-methoxy-2-propanesulfonamide or (1R,2S)-1-(5-chloro-2-pyrimidinyl)-N-(4-(dicyclopropylmethyl)-5-((2S)-1,4-dioxan-2-yl)-4H-1,2,4-triazol-3-yl)-1-methoxy-2-propanesulfonamide] | 6.9
10 | CO[C@H](c1ncc(Cl)cn1)[C@H](C)S(=O)(=O)Nc1nnc([C@@H]2COCCO2)n1C(C1CC1)C1CC1 (single isomer, unassigned) [Example 338.0, (1R,2S)-1-(5-chloro-2-pyrimidinyl)-N-(4-(dicyclopropylmethyl)-5-((2R)-1,4-dioxan-2-yl)-4H-1,2,4-triazol-3-yl)-1-methoxy-2-propanesulfonamide or (1R,2S)-1-(5-chloro-2-pyrimidinyl)-N-(4-(dicyclopropylmethyl)-5-((2S)-1,4-dioxan-2-yl)-4H-1,2,4-triazol-3-yl)-1-methoxy-2-propanesulfonamide] | 110
11 | COCC1(n2c(NS(=O)(=O)[C@@H](C)[C@H](OC)c3ncc(Cl)cn3)nnc2[C@H]2CCOC2)CC1 (single isomer, unassigned) [Example 339.0, (1R,2S)-1-(5-chloro-2-pyrimidinyl)-1-methoxy-N-(4-(1-(methoxymethyl)cyclopropyl)-5-((3R)-tetrahydro-3-furanyl)-4H-1,2,4-triazol-3-yl)-2-propanesulfonamide or (1R,2S)-1-(5-chloro-2-pyrimidinyl)-1-methoxy-N-(4-(1-(methoxymethyl)cyclopropyl)-5-((3S)-tetrahydro-3-furanyl)-4H-1,2,4-triazol-3-yl)-2-propanesulfonamide] | 1440
12 | COCC1(n2c(NS(=O)(=O)[C@@H](C)[C@H](OC)c3ncc(Cl)cn3)nnc2[C@H]2CCOC2)CC1 (single isomer, unassigned) [Example 340.0, (1R,2S)-1-(5-chloro-2-pyrimidinyl)-1-methoxy-N-(4-(1-(methoxymethyl)cyclopropyl)-5-((3R)-tetrahydro-3-furanyl)-4H-1,2,4-triazol-3-yl)-2-propanesulfonamide or (1R,2S)-1-(5-chloro-2-pyrimidinyl)-1-methoxy-N-(4-(1-(methoxymethyl)cyclopropyl)-5-((3S)-tetrahydro-3-furanyl)-4H-1,2,4-triazol-3-yl)-2-propanesulfonamide] | 150
13 | COCC1(n2c(NS(=O)(=O)[C@@H](C)[C@H](OC)c3ncc(Cl)cn3)nnc2[C@H]2COCCO2)CC1 (single isomer, unassigned) [Example 342.0, (1R,2S)-N-(5-((S)-1,4-dioxan-2-yl)-4-(1-(methoxymethyl)cyclopropyl)-4H-1,2,4-triazol-3-yl)-1-(5-chloropyrimidin-2-yl)-1-methoxypropane-2-sulfonamide or (1R,2S)-N-(5-((R)-1,4-dioxan-2-yl)-4-(1-(methoxymethyl)cyclopropyl)-4H-1,2,4-triazol-3-yl)-1-(5-chloropyrimidin-2-yl)-1-methoxypropane-2-sulfonamide] | 100
14 | COc1cccc(OC)c1-n1c(NS(=O)(=O)[C@@H](C)[C@H](C)c2ncc(Cl)cn2)nnc1[C@H]1CCC(=O)N1 (single isomer, unassigned) [Example 343.0, (2S,3R)-3-(5-chloropyrimidin-2-yl)-N-(4-(2,6-dimethoxyphenyl)-5-((R)-5-oxopyrrolidin-2-yl)-4H-1,2,4-triazol-3-yl)butane-2-sulfonamide or (2S,3R)-3-(5-chloropyrimidin-2-yl)-N-(4-(2,6-dimethoxyphenyl)-5-((S)-5-oxopyrrolidin-2-yl)-4H-1,2,4-triazol-3-yl)butane-2-sulfonamide] | 730
15 | COc1cccc(OC)c1-n1c(NS(=O)(=O)[C@@H](C)[C@H](C)c2ncc(Cl)cn2)nnc1[C@H]1CCC(=O)N1 (single isomer, unassigned) [Example 344.0, (2S,3R)-3-(5-chloropyrimidin-2-yl)-N-(4-(2,6-dimethoxyphenyl)-5-((R)-5-oxopyrrolidin-2-yl)-4H-1,2,4-triazol-3-yl)butane-2-sulfonamide or (2S,3R)-3-(5-chloropyrimidin-2-yl)-N-(4-(2,6-dimethoxyphenyl)-5-((S)-5-oxopyrrolidin-2-yl)-4H-1,2,4-triazol-3-yl)butane-2-sulfonamide] | 230
